For six cell lines, relative viability results are on record in the supplement of paper PMC10307832.

Common to all, as to assay: relative viability (nuclei count vs DMSO), 5 days (fraction); higher = more cells survive
Compound in test [1]: C=C(c1ccc(C(=O)O)cc1)c1cc2c(cc1C)C(C)(C)CCC2(C)C [Bexarotene] + CCNC(=O)c1noc(-c2cc(C(C)C)c(O)cc2O)c1-c1ccc(CN2CCOCC2)cc1 [Luminespib] (partner 0.01 µM)
The essentials: (§1)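 Lung cancer cell lines, seeded in 1536-well plates, were treated the following day by pin tool with a single drug or with five library-drug doses (not always all listed) in √10 steps on top of a fixed anchor-drug dose. Cells were fixed and nuclei stained in one step after 5 days, and nuclei were counted. Relative viability is the nuclei count for treated wells divided by that for vehicle wells, reported as medians of duplicate plates.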

Compound in test [2]: C=C(c1ccc(C(=O)O)cc1)c1cc2c(cc1C)C(C)(C)CCC2(C)C [Bexarotene] + COc1cccc2cc(-c3nc([C@H]4CC[C@H](C(=O)O)CC4)n4ncnc(N)c34)[nH]c12 [OSI-027] (partner 0.5 µM)
The gist of the method: as §1

Compound in test [3]: C=C(c1ccc(C(=O)O)cc1)c1cc2c(cc1C)C(C)(C)CCC2(C)C [Bexarotene] + CS(=O)(=O)CCNCc1ccc(-c2ccc3ncnc(Nc4ccc(OCc5cccc(F)c5)c(Cl)c4)c3c2)o1 [Lapatinib] (partner 2 µM)
The essentials: as §1

Compound in test [4]: C=C(c1ccc(C(=O)O)cc1)c1cc2c(cc1C)C(C)(C)CCC2(C)C [Bexarotene] + C[C@]1(O)C[C@@H](c2nc(-c3ccc4ccc(-c5ccccc5)nc4c3)c3c(N)nccn32)C1 [Linsitinib] (partner 1 µM)
The essentials:
as §1

Regarding HARA, the relative viability was 0.722 in test [1] (first compound 0.08 µM); 0.769 in test [1] (first compound 0.253 µM); 0.658 in test [1] (first compound 0.8 µM); 0.767 in test [1] (first compound 2.53 µM); 0.709 in test [1] (first compound 8 µM); 0.502 in test [2] (first compound 0.08 µM). Moreover, the relative viability in test [2] (first compound 0.253 µM) was 0.494; in test [2] (first compound 0.8 µM), 0.311; in test [2] (first compound 2.53 µM), 0.368; in test [2] (first compound 8 µM) it was 0.423; in test [3] (first compound 0.08 µM), 0.747; in test [3] (first compound 0.253 µM), 0.839. For the same cell line, the relative viability in test [3] (first compound 0.8 µM) worked out at 0.684; in test [3] (first compound 2.53 µM), 0.77; in test [3] (first compound 8 µM), 0.706; in test [4] (first compound 0.08 µM), 0.971; in test [4] (first compound 0.253 µM) it was 0.939; in test [4] (first compound 0.8 µM), 0.709. Further, the relative viability in test [4] (first compound 2.53 µM) turned out to be 0.748; in test [4] (first compound 8 µM) it was 0.648.

For NCI-H322M, the relative viability amounted to 1.05 in test [1] (first compound 0.08 µM); 0.902 in test [1] (first compound 0.253 µM); 0.862 in test [1] (first compound 0.8 µM); 0.982 in test [1] (first compound 2.53 µM); 0.812 in test [1] (first compound 8 µM); 0.698 in test [2] (first compound 0.08 µM). In addition, the relative viability in test [2] (first compound 0.253 µM) is 0.351; in test [2] (first compound 0.8 µM) it was 0.637; in test [2] (first compound 2.53 µM) it was 0.585; in test [2] (first compound 8 µM) it was 0.623; in test [3] (first compound 0.08 µM), 0.634; in test [3] (first compound 0.253 µM), 0.572. For the same cell line, the relative viability in test [3] (first compound 0.8 µM) was 0.658; in test [3] (first compound 2.53 µM), 0.625; in test [3] (first compound 8 µM), 0.578; in test [4] (first compound 0.08 µM) it was 1.08; in test [4] (first compound 0.253 µM), 0.947; in test [4] (first compound 0.8 µM), 0.846. For the same cell line, the relative viability is 0.92 in test [4] (first compound 2.53 µM) and 0.891 in test [4] (first compound 8 µM).

As for NCI-H2347, the relative viability in test [1] (first compound 0.08 µM) turned out to be 0.507; in test [1] (first compound 0.253 µM), 0.255; in test [1] (first compound 2.53 µM), 0.379; in test [1] (first compound 8 µM) it was 0.22; in test [2] (first compound 0.08 µM), 0.353; in test [2] (first compound 0.253 µM), 0.275. In addition, the relative viability in test [2] (first compound 2.53 µM) stood at 0.446; in test [2] (first compound 8 µM), 0.386; in test [3] (first compound 0.08 µM), 1.18; in test [3] (first compound 0.253 µM), 1.1; in test [3] (first compound 0.8 µM), 0.669; in test [3] (first compound 2.53 µM) it was 1.06. Moreover, the relative viability in test [3] (first compound 8 µM) stood at 0.917; in test [4] (first compound 0.08 µM), 1.06; in test [4] (first compound 0.253 µM), 1.02; in test [4] (first compound 0.8 µM), 0.749; in test [4] (first compound 2.53 µM), 0.975; in test [4] (first compound 8 µM) it was 1.02.

Take NCI-H1975: the relative viability in test [1] (first compound 0.08 µM) amounted to 0.171; in test [1] (first compound 0.253 µM), 0.159; in test [1] (first compound 0.8 µM) it was 0.201; in test [1] (first compound 2.53 µM) it was 0.154; in test [1] (first compound 8 µM), 0.215; in test [2] (first compound 0.08 µM) it was 0.9. In addition, the relative viability is 0.811 in test [2] (first compound 0.253 µM); 0.802 in test [2] (first compound 0.8 µM); 0.806 in test [2] (first compound 2.53 µM); 0.722 in test [2] (first compound 8 µM); 1.25 in test [3] (first compound 0.08 µM); 1.01 in test [3] (first compound 0.253 µM). Also, the relative viability is 1 in test [3] (first compound 0.8 µM); 1.1 in test [3] (first compound 2.53 µM); 0.988 in test [3] (first compound 8 µM); 1.06 in test [4] (first compound 0.08 µM); 1.12 in test [4] (first compound 0.253 µM); 1.08 in test [4] (first compound 0.8 µM). Further, the relative viability in test [4] (first compound 2.53 µM) came to 1.22; in test [4] (first compound 8 µM), 1.1.

On to UMC-11, for which the relative viability was 1.04 in test [1] (first compound 0.08 µM); 0.983 in test [1] (first compound 0.253 µM); 0.866 in test [1] (first compound 0.8 µM); 0.911 in test [1] (first compound 2.53 µM); 0.969 in test [1] (first compound 8 µM); 0.468 in test [2] (first compound 0.08 µM). Also, the relative viability in test [2] (first compound 0.253 µM) stood at 0.515; in test [2] (first compound 0.8 µM), 0.419; in test [2] (first compound 2.53 µM), 0.436; in test [2] (first compound 8 µM) it was 0.432; in test [3] (first compound 0.08 µM), 0.943; in test [3] (first compound 0.253 µM), 0.907. Further, the relative viability was 0.894 in test [3] (first compound 0.8 µM); 0.803 in test [3] (first compound 2.53 µM); 0.916 in test [3] (first compound 8 µM); 1.08 in test [4] (first compound 0.08 µM); 1.01 in test [4] (first compound 0.253 µM); 1.04 in test [4] (first compound 0.8 µM). Besides, the relative viability in test [4] (first compound 2.53 µM) was 0.978; in test [4] (first compound 8 µM), 0.998.

On to ABC-1, for which the relative viability in test [1] (first compound 0.08 µM) is 0.591; in test [1] (first compound 0.253 µM), 0.654; in test [1] (first compound 0.8 µM) it was 0.597; in test [1] (first compound 2.53 µM) it was 0.576; in test [1] (first compound 8 µM), 0.677; in test [2] (first compound 0.08 µM), 0.466. Further, the relative viability in test [2] (first compound 0.253 µM) was determined as 0.582; in test [2] (first compound 0.8 µM), 0.565; in test [2] (first compound 2.53 µM), 0.362; in test [2] (first compound 8 µM), 0.449; in test [3] (first compound 0.08 µM), 0.914; in test [3] (first compound 0.253 µM) it was 1.38. The relative viability in test [3] (first compound 0.8 µM) was 1.14; in test [3] (first compound 2.53 µM) it was 1.16; in test [3] (first compound 8 µM), 1.09; in test [4] (first compound 0.08 µM), 0.74; in test [4] (first compound 0.253 µM) it was 0.77; in test [4] (first compound 0.8 µM), 0.741. In addition, the values for the relative viability in test [4] (first compound 2.53 µM) and in test [4] (first compound 8 µM) were 0.683 and 0.654, respectively.
